Columns and labels:
Assay in all cases: KINOMEscan competition binding
Settings in all cases: compound 10.0 µM
RIOK2 (human) = RIOK2 (human) (UniProt Q9BVS4)
EPHA8 (human) = EPHA8 (human) (UniProt P29322)
PRKACA (human) = PRKACA (human) (UniProt P17612)
MAPK4 (human) = MAPK4 (human) (UniProt P31152)
STK25 (human) = STK25 (human) (UniProt O00506)
RET (human) = RET (human) (UniProt P07949)
CDKL2 (human) = CDKL2 (human) (UniProt Q92772)
CLK1 (human) = CLK1 (human) (UniProt P49759)
PRKX (human) = PRKX (human) (UniProt P51817)
ERBB2 (human) = ERBB2 (human) (UniProt P04626)
NLK (human) = NLK (human) (UniProt Q9UBE8)
CLK4 (human) = CLK4 (human) (UniProt Q9HAZ1)
PIM1 (human) = PIM1 (human) (UniProt P11309)
EPHB2 (human) = EPHB2 (human) (UniProt P29323)
RIOK3 (human) = RIOK3 (human) (UniProt O14730)
RIOK3 (human), sequence (O14730 whole entry, looked up): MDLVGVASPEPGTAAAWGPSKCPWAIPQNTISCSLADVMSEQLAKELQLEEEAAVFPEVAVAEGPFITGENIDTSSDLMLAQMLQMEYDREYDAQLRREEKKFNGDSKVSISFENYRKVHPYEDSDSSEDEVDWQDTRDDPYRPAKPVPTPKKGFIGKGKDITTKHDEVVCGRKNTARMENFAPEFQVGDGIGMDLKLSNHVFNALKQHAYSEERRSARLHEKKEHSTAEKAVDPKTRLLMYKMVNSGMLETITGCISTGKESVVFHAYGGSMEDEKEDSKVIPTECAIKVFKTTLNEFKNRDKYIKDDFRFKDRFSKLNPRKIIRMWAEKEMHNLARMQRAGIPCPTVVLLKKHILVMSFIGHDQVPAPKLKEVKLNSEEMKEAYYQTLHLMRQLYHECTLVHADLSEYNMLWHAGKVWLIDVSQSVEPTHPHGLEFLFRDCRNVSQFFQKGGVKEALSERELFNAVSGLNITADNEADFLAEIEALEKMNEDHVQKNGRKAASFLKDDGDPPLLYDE

MAP2K1 (human) = MAP2K1 (human) (UniProt Q02750)
CLK2 (human) = CLK2 (human) (UniProt P49760)
WEE1 (human) = WEE1 (human) (UniProt P30291)
MELK (human) = MELK (human) (UniProt Q14680)
PRKCQ (human) = PRKCQ (human) (UniProt Q04759)
STK11 (human) = STK11 (human) (UniProt Q15831)
STK11 (human), sequence (Q15831 whole entry, looked up): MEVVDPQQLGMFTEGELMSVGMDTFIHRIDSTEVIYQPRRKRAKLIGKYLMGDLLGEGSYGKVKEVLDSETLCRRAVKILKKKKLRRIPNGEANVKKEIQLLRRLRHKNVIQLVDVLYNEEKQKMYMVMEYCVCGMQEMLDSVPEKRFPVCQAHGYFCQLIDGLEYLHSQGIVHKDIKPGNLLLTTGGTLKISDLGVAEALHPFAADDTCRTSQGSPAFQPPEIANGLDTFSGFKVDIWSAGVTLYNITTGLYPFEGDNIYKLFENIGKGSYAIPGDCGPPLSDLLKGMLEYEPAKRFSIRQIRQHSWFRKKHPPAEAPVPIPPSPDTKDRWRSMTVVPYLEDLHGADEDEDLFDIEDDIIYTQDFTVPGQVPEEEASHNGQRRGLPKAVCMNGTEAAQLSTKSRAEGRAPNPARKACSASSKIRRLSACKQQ

PRKD3 (human) = PRKD3 (human) (UniProt O94806)
CaMK1 (human) = CaMK1 (human) (UniProt Q14012)
TXK (human) = TXK (human) (UniProt P42681)
TXK (human), sequence (P42681 whole entry, looked up): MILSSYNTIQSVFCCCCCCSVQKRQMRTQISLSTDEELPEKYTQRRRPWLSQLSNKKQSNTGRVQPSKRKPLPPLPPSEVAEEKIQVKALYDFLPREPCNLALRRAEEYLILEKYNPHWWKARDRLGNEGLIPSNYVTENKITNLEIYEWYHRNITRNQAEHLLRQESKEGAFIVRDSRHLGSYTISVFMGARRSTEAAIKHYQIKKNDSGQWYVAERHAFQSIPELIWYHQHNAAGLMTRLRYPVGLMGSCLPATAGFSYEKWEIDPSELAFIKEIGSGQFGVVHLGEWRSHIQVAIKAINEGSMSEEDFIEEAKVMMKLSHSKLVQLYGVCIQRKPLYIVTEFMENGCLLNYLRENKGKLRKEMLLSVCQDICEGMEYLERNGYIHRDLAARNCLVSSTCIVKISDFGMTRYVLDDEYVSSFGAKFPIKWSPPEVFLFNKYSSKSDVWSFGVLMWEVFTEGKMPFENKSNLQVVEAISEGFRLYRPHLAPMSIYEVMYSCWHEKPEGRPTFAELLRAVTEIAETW

PIK3CB (human) = PIK3CB (human) (UniProt P42338)
ERBB4 (human) = ERBB4 (human) (UniProt Q15303)
RIPK2 (human) = RIPK2 (human) (UniProt O43353)
RIPK2 (human), sequence (O43353 whole entry, looked up): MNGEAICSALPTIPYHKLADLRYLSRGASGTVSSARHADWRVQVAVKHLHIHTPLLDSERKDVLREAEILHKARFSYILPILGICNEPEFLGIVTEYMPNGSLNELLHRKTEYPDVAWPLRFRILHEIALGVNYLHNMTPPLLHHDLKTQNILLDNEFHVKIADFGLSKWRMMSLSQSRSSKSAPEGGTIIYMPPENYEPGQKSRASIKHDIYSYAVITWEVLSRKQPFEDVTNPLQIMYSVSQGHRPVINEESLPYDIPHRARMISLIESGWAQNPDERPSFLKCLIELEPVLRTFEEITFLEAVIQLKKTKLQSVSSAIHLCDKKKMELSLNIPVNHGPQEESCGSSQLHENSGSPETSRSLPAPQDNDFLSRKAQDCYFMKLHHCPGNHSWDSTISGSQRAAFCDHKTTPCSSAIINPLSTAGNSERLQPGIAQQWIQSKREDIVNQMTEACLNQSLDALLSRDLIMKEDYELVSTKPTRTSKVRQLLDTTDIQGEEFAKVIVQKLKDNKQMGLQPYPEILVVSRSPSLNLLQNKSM

NEK2 (human) = NEK2 (human) (UniProt P51955)
PTK2B (human) = PTK2B (human) (UniProt Q14289)
[1] = test system: FLT3 (human), P36888 [D835Y]
CSF1R (human) = CSF1R (human) (UniProt P07333)
[2] = test system: EGFR (human), P00533 [G719S]
PDGFRB (human) = PDGFRB (human) (UniProt P09619)
PDGFRB (human), sequence (P09619 whole entry, looked up): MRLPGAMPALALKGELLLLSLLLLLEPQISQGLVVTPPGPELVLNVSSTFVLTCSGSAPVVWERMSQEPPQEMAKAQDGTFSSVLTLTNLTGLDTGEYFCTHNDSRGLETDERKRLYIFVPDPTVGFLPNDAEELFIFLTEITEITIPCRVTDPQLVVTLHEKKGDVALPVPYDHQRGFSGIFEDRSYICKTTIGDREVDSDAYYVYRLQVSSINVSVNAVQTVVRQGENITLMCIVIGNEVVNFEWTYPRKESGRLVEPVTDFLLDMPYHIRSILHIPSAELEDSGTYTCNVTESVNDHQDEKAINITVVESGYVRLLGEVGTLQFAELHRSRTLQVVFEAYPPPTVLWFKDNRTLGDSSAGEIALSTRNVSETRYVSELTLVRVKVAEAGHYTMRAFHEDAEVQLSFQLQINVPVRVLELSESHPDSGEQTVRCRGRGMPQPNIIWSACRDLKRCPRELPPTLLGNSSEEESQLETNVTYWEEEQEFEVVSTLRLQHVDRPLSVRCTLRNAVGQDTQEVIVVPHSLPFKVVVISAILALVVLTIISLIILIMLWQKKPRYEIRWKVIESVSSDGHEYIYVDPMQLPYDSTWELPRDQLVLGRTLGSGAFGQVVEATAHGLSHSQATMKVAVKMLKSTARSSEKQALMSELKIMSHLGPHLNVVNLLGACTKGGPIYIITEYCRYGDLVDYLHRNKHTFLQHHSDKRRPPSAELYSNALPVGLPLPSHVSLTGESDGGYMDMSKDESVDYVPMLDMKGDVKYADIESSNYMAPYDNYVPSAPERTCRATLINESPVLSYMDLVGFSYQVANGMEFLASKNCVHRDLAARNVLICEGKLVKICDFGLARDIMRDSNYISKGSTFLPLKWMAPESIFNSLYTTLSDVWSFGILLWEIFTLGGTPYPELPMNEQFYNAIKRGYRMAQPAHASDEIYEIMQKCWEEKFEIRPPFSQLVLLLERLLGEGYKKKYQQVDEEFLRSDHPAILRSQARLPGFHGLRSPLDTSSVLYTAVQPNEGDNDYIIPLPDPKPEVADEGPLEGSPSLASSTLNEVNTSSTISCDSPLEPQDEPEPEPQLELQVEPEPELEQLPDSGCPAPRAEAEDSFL

GSK3B (human) = GSK3B (human) (UniProt P49841)
GSK3B (human), sequence (P49841 whole entry, looked up): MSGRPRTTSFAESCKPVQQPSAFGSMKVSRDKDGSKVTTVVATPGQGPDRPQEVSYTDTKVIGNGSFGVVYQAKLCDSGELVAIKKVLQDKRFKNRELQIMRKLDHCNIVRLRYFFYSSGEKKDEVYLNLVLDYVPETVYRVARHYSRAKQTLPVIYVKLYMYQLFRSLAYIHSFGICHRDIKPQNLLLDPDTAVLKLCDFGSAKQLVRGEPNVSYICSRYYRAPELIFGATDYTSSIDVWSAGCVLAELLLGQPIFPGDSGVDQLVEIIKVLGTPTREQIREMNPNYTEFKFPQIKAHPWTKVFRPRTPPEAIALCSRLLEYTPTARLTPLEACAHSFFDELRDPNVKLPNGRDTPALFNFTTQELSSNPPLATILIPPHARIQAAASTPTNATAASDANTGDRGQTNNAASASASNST

[3] = test system: KIT (human), P10721 [D816V]
NUAK1 (human) = NUAK1 (human) (UniProt O60285)
FER (human) = FER (human) (UniProt P16591)
[4] = biological target: JAK1 JH2 pseudokinase (human) (UniProt P23458)
CSK (human) = CSK (human) (UniProt P41240)
CSK (human), sequence (P41240 whole entry, looked up): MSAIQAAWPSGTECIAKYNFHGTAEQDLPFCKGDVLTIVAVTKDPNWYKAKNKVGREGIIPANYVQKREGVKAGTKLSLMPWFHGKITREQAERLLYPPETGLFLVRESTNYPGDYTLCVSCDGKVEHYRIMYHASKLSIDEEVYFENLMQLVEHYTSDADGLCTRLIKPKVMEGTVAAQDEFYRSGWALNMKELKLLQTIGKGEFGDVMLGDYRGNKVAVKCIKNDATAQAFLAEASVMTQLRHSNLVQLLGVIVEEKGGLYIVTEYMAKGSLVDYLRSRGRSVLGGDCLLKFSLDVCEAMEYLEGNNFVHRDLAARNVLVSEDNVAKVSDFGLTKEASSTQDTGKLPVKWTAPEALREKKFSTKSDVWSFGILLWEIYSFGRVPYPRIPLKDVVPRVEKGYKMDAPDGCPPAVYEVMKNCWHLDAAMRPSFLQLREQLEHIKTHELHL

[5] = test system: RET (human), P07949 [M918T]
PRKAA1 (human) = PRKAA1 (human) (UniProt Q13131)
CDK11B (human) = CDK11B (human) (UniProt P21127)
LYN (human) = LYN (human) (UniProt P07948)

CLK1 (human), sequence (P49759 whole entry, looked up): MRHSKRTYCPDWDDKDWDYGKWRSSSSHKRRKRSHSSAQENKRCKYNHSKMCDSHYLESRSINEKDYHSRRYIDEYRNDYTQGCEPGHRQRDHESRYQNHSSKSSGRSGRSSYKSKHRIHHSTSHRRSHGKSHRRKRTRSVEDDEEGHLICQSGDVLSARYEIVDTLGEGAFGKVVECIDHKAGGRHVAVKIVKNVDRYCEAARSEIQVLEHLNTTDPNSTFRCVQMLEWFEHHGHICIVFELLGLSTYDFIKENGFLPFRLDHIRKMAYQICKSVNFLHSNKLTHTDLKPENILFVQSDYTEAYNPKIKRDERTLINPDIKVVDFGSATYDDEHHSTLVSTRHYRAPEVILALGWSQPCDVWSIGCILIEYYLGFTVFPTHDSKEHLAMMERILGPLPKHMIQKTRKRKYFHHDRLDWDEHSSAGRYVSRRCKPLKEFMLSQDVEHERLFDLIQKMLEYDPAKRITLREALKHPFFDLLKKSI
STK25 (human), sequence (O00506 whole entry, looked up): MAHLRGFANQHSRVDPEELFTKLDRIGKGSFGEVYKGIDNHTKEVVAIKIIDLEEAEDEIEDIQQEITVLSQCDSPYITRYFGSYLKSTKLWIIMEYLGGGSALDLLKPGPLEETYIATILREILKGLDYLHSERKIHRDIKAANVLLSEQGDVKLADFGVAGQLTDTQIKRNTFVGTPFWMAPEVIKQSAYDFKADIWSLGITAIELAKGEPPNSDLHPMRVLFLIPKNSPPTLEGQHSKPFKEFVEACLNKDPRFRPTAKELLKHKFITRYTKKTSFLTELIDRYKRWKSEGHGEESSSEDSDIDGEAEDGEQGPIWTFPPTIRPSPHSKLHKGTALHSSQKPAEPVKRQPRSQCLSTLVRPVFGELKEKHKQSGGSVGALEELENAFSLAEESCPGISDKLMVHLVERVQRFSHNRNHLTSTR

Compound: CCN1CCN(Cc2ccc(NC(=O)c3ccc(C)c(/C=C/c4cnc(Nc5cc(N6CCNCC6)nc(C)n5)cn4)c3)cc2C(F)(F)F)CC1
- kinase still bound, per cent of control (RIOK2 (human)): 85%
- kinase still bound, per cent of control (EPHA8 (human)): 0.35%
- kinase still bound, per cent of control (PRKACA (human)): 26%
- kinase still bound, per cent of control (MAPK4 (human)): 100%
- kinase still bound, per cent of control (STK25 (human)): 35%
- kinase still bound, per cent of control (RET (human)): 0.15%
- kinase still bound, per cent of control (CDKL2 (human)): 0.15%
- kinase still bound, per cent of control (CLK1 (human)): 29%
- kinase still bound, per cent of control (PRKX (human)): 100%
- kinase still bound, per cent of control (ERBB2 (human)): 0%
- kinase still bound, per cent of control (NLK (human)): 65%
- kinase still bound, per cent of control (CLK4 (human)): 31%
- kinase still bound, per cent of control (PIM1 (human)): 76%
- kinase still bound, per cent of control (EPHB2 (human)): 5.7%
- kinase still bound, per cent of control (RIOK3 (human)): 78%
- kinase still bound, per cent of control (MAP2K1 (human)): 35%
- kinase still bound, per cent of control (CLK2 (human)): 86%
- kinase still bound, per cent of control (WEE1 (human)): 100%
- kinase still bound, per cent of control (MELK (human)): 25%
- kinase still bound, per cent of control (PRKCQ (human)): 81%
- kinase still bound, per cent of control (STK11 (human)): 76%
- kinase still bound, per cent of control (PRKD3 (human)): 71%
- kinase still bound, per cent of control (CaMK1 (human)): 90%
- kinase still bound, per cent of control (TXK (human)): 4%
- kinase still bound, per cent of control (PIK3CB (human)): 85%
- kinase still bound, per cent of control (ERBB4 (human)): 7%
- kinase still bound, per cent of control (RIPK2 (human)): 5.4%
- kinase still bound, per cent of control (NEK2 (human)): 100%
- kinase still bound, per cent of control (PTK2B (human)): 36%
- kinase still bound, per cent of control [1]: 3.2%
- kinase still bound, per cent of control (CSF1R (human)): 1.1%
- kinase still bound, per cent of control [2]: 5.4%
- kinase still bound, per cent of control (PDGFRB (human)): 0%
- kinase still bound, per cent of control (GSK3B (human)): 100%
- kinase still bound, per cent of control [3]: 25%
- kinase still bound, per cent of control (NUAK1 (human)): 98%
- kinase still bound, per cent of control (FER (human)): 78%
- kinase still bound, per cent of control [4]: 94%
- kinase still bound, per cent of control (CSK (human)): 0.55%
- kinase still bound, per cent of control [5]: 0.2%
- kinase still bound, per cent of control (PRKAA1 (human)): 18%
- kinase still bound, per cent of control (CDK11B (human)): 78%
- kinase still bound, per cent of control (LYN (human)): 1%

— the kinase profiling compilation of Christmann-Franck et al. (2016)
